# Experimental data published in ChEMBL document CHEMBL2074406, “Single amino acid substitutions in the transmembrane domains of breast cancer resistance protein (BCRP) alter cross resistance patterns in transfectants” (Int J Cancer, 2003).
# Molecular target: T1, Broad substrate specificity ATP-binding cassette transporter ABCG2 (Homo sapiens, UniProt Q9UNQ0)
# T1 sequence (Q9UNQ0 whole entry): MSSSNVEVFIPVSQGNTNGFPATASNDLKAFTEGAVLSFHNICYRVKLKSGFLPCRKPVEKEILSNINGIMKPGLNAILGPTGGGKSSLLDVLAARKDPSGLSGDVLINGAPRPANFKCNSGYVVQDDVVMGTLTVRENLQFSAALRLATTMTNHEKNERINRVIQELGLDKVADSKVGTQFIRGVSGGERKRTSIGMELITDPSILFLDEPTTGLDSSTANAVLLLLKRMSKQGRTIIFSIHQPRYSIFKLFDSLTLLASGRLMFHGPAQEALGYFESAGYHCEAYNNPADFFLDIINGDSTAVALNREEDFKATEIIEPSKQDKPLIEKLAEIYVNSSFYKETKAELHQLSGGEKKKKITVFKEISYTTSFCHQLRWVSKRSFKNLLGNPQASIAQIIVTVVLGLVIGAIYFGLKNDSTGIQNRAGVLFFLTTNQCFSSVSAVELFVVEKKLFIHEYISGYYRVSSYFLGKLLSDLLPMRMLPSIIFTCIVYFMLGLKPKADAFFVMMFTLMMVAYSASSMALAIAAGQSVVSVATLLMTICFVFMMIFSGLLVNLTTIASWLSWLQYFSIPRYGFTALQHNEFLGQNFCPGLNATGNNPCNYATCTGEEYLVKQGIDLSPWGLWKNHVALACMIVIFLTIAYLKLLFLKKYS
# Test: TP_TRANSPORTER: drug resistance in BCRP-expressing PA317 cells
# Type: functional, cell-based
# Conditions: mouse
row,SMILES,Activity
1,COc1ccc2c3c([nH]c2c1)[C@H](C=C(C)C)N1C(=O)[C@@H]2CCCN2C(=O)[C@@H]1C3 [FUMITREMORGIN],inhibitor []
2,O=C1c2c(O)ccc(O)c2C(=O)c2c(NCCNCCO)ccc(NCCNCCO)c21 [MITOXANTRONE],substrate []
3,CCc1c2c(nc3ccc(O)cc13)-c1cc3c(c(=O)n1C2)COC(=O)[C@]3(O)CC [7-ETHYL-10-HYDROXYCAMPTOTHECIN],substrate []
4,C[C@]12CC[C@@H]3c4ccc(O)cc4CC[C@H]3[C@@H]1CCC2=O [ESTRONE],inhibitor []
